Measurements as given in paper PMC12209172, “Poly(ADP-ribose)polymerase 2 is zinc-dependent enzyme and nucleosome reorganizer” (Cellular and Molecular Life Sciences: CMLS, 2025).
Values joined by “and” are separate entries in the source; they are usually repeats but may differ in a detail not shown here. Equal values may be shown once.

Experiments:
WGR domain of PARP2 [1] = target: T1, WGR domain of PARP2 (Homo sapiens, UniProt Q9UGN5); test: Tryptophan fluorescence spectroscopy of the WGR domain titrated with divalent cations (one site binding fit); settings: for fluorescence intensity (Fig 3d): listed as Zn
T1 construct: WGR domain of PARP2 (residues 77–220) into pET-15b-TEV expression vector; 6xHis (pET-15b-TEV) (N, cleaved yes); made in house; host or cells: Escherichia coli Rosetta2 (DE3) pLysS
T1 sequence (Q9UGN5 77-220): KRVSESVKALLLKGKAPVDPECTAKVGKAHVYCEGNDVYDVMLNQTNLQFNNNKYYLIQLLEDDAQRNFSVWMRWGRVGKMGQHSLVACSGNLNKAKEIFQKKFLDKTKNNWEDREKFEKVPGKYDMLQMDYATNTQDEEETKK
Method: (§1) Fluorescence spectra of Trp residues were measured in the 300–450 nm spectral range at the 270 nm excitation wavelengths using the Cary Eclipse spectrofluorometer (Varian/Agilent, USA).
Fluorescence of WGR domain was measured at 0.5 or 5 µM in a buffer containing 10 mM HEPES (pH 8.0), 150 mM NaCl and 0.73 or 7.3 µM EDTA, respectively. Solutions were complemented with ZnCl2 (0.2–308 µM) or MgCl2 (15–5000 µM), or CaCl2 (8–5000 µM) dissolved in a buffer containing 10 mM HEPES (pH 8.0), 150 mM NaCl. Intensity of the measured spectra was corrected for the concomitant dilution of the WGR domain. Integral intensities (Ifl.) of fluorescence spectra were averaged over three independent measurements (mean ± SEM) and used to plot the corresponding Ifl. vs. ion concentration graphs. Data were fitted with the one site binding equation:2 [drawing 2]
Where C is the concentration of divalent cations, Kd is a dissociation constant of the complex, Im and Ifl0 are maximal and initial values of Ifl., respectively.

PARP2 [2] = target: T2, PARP2 (Mus musculus, UniProt O88554); test: Circular dichroism spectroscopy of PARP2 (BeStSel secondary structure analysis); parameters: Recombinant mouse full-length PARP2 was obtained in the baculovirus expression system; made in house; host or cells: Sf9 insect cells (baculovirus); gift of Prof; O. Lavrik; settings: 0.3 mM Zn2+, 0.7 mM Ca2+ or 0.7 mM Mg2+
T2 sequence (O88554 whole entry): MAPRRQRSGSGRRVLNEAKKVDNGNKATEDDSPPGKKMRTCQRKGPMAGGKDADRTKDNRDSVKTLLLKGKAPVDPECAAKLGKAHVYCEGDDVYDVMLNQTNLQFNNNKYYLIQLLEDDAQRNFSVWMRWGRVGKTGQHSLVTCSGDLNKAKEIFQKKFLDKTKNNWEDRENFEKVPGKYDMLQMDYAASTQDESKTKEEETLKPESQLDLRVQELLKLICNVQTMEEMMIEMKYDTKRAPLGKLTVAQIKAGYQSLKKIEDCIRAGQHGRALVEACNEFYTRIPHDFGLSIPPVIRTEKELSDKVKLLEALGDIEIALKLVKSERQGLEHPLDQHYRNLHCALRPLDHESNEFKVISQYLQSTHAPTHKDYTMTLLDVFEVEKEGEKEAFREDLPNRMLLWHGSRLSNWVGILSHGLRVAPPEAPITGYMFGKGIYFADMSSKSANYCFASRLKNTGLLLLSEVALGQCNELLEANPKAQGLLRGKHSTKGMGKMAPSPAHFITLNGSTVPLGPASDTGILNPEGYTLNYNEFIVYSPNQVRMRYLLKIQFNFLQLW
Method: (§2) CD spectra of proteins were recorded within the 190-250 nm spectral range with 0.2 nm step using Jasco-810 spectrophotometer (Jasco, Japan) and the quartz […]® cuvette of 0.1 mm thickness (Hellma, Germany. Secondary structure analysis was performed using BeStSel webserver. To improve the reliability of the analysis, the content of canonical secondary structures of various types was predicted for 3-6 independent measurements, and the values were averaged. The statistical significance of the secondary structure difference was determined using the multiple t-test.

PARP2 [3] = target: T2, PARP2; test: Tryptophan fluorescence spectroscopy of PARP2 with Zn2+; assay type: binding; parameters: Recombinant mouse full-length PARP2 was obtained in the baculovirus expression system; made in house; host or cells: Sf9 insect cells (baculovirus); gift of Prof; O. Lavrik; settings: PARP2 0.5 µM, Zn2+ 377 µM
Method: as §1
Fluorescence of PARP2 was measured at 0.5 µM in a buffer containing 7% glycerin, 33 µM HEPES (pH 8.0), 75 mM NaCl, 89 µM EDTA, 27 µM ZnCl2, 1.5 µM TCEP. A solution of PARP2 was complemented with ZnCl2 to 377 µM.

WGR domain of PARP2 [4] = target: T1, WGR domain of PARP2; test: Circular dichroism spectroscopy of the WGR domain (BeStSel secondary structure analysis); parameters: content of a-helix in the WGR domain / content of b-sheet in the WGR domain / content of turn in the WGR domain / content of random coil in the WGR domain: unit not given here
Method: as §2

[5] = 0.5 mM ion, independent measurements

Q: For `[Cl-].[Cl-].[Zn+2]` [Zn2+, ZnCl2], which “Zn2+ concentration at which changes in the fluorescence of Trp residues of the WGR domain were observed” value (WGR domain of PARP2 [1]; Figure S4) is on record?
A: 0.4 to 5 µM

Q: What about the Kd (WGR domain of PARP2 [1]; Trp fluorescence, one site binding fit, 10 mM HEPES pH 8.0, 150 mM NaCl, residual EDTA present, read-out: dissociation constant of the divalent cation-WGR domain complex) of the same compound?
A: 2000 nM and ~2000 nM

Q: And the “effect of ions on intensity of tryptophan fluorescence of the WGR domain” value (WGR domain of PARP2 [1]; WGR domain 5 µM)?
A: considerably increased

Q: And the “fluorescence intensity (Fig 3d)” value (WGR domain of PARP2 [1]; wavelength 330.000, 5.9 uM Zn)?
A: 64.607 and 70.927 and 88.925 and 69.072

Q: What about the “fluorescence intensity (Fig 3d)” value (WGR domain of PARP2 [1]; wavelength 330.000, 11.6 uM Zn) of the same compound?
A: 118.714 and 102.531 and 101.352 and 109.279

Q: And the “fluorescence intensity (Fig 3d)” value (WGR domain of PARP2 [1]; wavelength 330.000, 17.2 uM)?
A: 125.078 and 114.327 and 116.086 and 114.151

Q: And the “fluorescence intensity (Fig 3d)” value (WGR domain of PARP2 [1]; wavelength 330.000, 22.1 uM)?
A: 125.812 and 115.097 and 117.722 and 114.227

Q: And the “fluorescence intensity (Fig 3d)” value (WGR domain of PARP2 [1]; wavelength 330.000, 303 uM + 7 mM EDTA)?
A: 42.022 and 51.928 and 42.125 and 50.264

Q: And the “fluorescence intensity (Fig 3d)” value (WGR domain of PARP2 [1]; wavelength 330.000, 308 uM)?
A: 125.859 and 119.818 and 119.168 and 117.804

Q: And the “fluorescence intensity (Fig 3d)” value (WGR domain of PARP2 [1]; wavelength 331.070, 5.9 uM Zn)?
A: 65.518 and 73.717 and 91.313 and 71.214

Q: And the “fluorescence intensity (Fig 3d)” value (WGR domain of PARP2 [1]; wavelength 331.070, 11.6 uM Zn)?
A: 121.141 and 105.018 and 103.680 and 111.886

Q: What about the “fluorescence intensity (Fig 3d)” value (WGR domain of PARP2 [1]; wavelength 331.070, 17.2 uM) of the same compound?
A: 128.785 and 116.958 and 116.866 and 116.180

Q: And the “fluorescence intensity (Fig 3d)” value (WGR domain of PARP2 [1]; wavelength 331.070, 22.1 uM)?
A: 127.402 and 115.749 and 117.457 and 117.342

Q: What about the “fluorescence intensity (Fig 3d)” value (WGR domain of PARP2 [1]; wavelength 331.070, 303 uM + 7 mM EDTA) of the same compound?
A: 42.915 and 54.693 and 43.072 and 51.479

Q: What about the “fluorescence intensity (Fig 3d)” value (WGR domain of PARP2 [1]; wavelength 331.070, 308 uM) of the same compound?
A: 129.366 and 122.539 and 123.005 and 119.729

Q: What about the “fluorescence intensity (Fig 3d)” value (WGR domain of PARP2 [1]; wavelength 332.000, 5.9 uM Zn) of the same compound?
A: 66.418 and 75.386 and 92.296 and 72.347

Q: And the “fluorescence intensity (Fig 3d)” value (WGR domain of PARP2 [1]; wavelength 332.000, 11.6 uM Zn)?
A: 123.485 and 106.394 and 106.147 and 113.513

Q: And the “fluorescence intensity (Fig 3d)” value (WGR domain of PARP2 [1]; wavelength 332.000, 17.2 uM)?
A: 128.874 and 118.064 and 118.851 and 118.214

Q: And the “fluorescence intensity (Fig 3d)” value (WGR domain of PARP2 [1]; wavelength 332.000, 22.1 uM)?
A: 131.124 and 117.614 and 119.985 and 119.070

Q: And the “fluorescence intensity (Fig 3d)” value (WGR domain of PARP2 [1]; wavelength 332.000, 303 uM + 7 mM EDTA)?
A: 43.600 and 54.088 and 43.890 and 52.288

Q: And the “fluorescence intensity (Fig 3d)” value (WGR domain of PARP2 [1]; wavelength 332.000, 308 uM)?
A: 130.593 and 122.360 and 123.201 and 121.123

Q: And the “fluorescence intensity (Fig 3d)” value (WGR domain of PARP2 [1]; wavelength 333.070, 5.9 uM Zn)?
A: 68.103 and 76.819 and 93.790 and 71.930

Q: What about the “fluorescence intensity (Fig 3d)” value (WGR domain of PARP2 [1]; wavelength 333.070, 11.6 uM Zn) of the same compound?
A: 125.333 and 108.991 and 107.827 and 116.743

Q: What about the “fluorescence intensity (Fig 3d)” value (WGR domain of PARP2 [1]; wavelength 333.070, 17.2 uM) of the same compound?
A: 132.720 and 120.694 and 121.118 and 119.035

Q: What about the “fluorescence intensity (Fig 3d)” value (WGR domain of PARP2 [1]; wavelength 333.070, 22.1 uM) of the same compound?
A: 132.619 and 121.520 and 120.252 and 122.459

Q: And the “fluorescence intensity (Fig 3d)” value (WGR domain of PARP2 [1]; wavelength 333.070, 303 uM + 7 mM EDTA)?
A: 43.562 and 54.895 and 44.695 and 52.661

Q: And the “fluorescence intensity (Fig 3d)” value (WGR domain of PARP2 [1]; wavelength 333.070, 308 uM)?
A: 133.279 and 127.119 and 125.798 and 122.486

Q: And the “fluorescence intensity (Fig 3d)” value (WGR domain of PARP2 [1]; wavelength 334.000, 5.9 uM Zn)?
A: 68.621 and 78.226

Q: What about the “fluorescence intensity (Fig 3d)” value (WGR domain of PARP2 [1]; wavelength 334.000, 11.6 uM Zn) of the same compound?
A: 126.789 and 111.115

Q: What about the “effect of ions on the CD spectrum / conformation of PARP2” value (PARP2 [2]) of the same compound?
A: small conformational changes

Q: What about the “intensity of fluorescence spectrum of tryptophan residues of PARP2 after addition of ions” value (PARP2 [3]) of the same compound?
A: increased

Q: What about the “effect of ions on the structure of the WGR domain (CD)” value (WGR domain of PARP2 [4]) of the same compound?
A: significantly changes

Q: What about the “content of b-sheet in the WGR domain” value (WGR domain of PARP2 [4]; [5]) of the same compound?
A: 26.6 and 28 and 25.5 and 34.1 and 29.7

Q: What about the “content of random coil in the WGR domain” value (WGR domain of PARP2 [4]; [5]) of the same compound?
A: 48.2 and 46 and 53.4 and 46.2

Q: What about the “content of turn in the WGR domain” value (WGR domain of PARP2 [4]; [5]) of the same compound?
A: 15.4 and 13.9 and 14.7 and 15.1 and 13.3
